Test results from patent publication US20250368666A1, “INDAZOLE COMPOUNDS” (TYRA BIOSCIENCES, INC., priority 2022, published 2025).

Assays:
[1] = test system: HuH7 cell line (FGF19 amplification); experiment: Cancer cell line cell viability assay (Cell Titer-Glo), 120 hr; assay type: cell-based; conditions: Homo sapiens, Huh-7
In short: (§1)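 RPMI1640/10% FBS for RT112/84 and MDA-MB-453; IMDM/20% FBS for KG-1; IMDM/10% FBS for HuH7. Cells plated overnight, dosed from 3 μM in 4-fold, 9-point series, incubated at 37° C, then lysed with Cell Titer-Glo 2.0; IC50 by sigmoidal fit.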

[2] = test system: KATO-III cell line (FGFR2 amplification); experiment: Cancer cell line cell viability assay (Cell Titer-Glo), 72 hr; assay type: cell-based; conditions: Homo sapiens, KATO III
In short: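 5,000-20,000 cells/well o/n; cpd 9-pt 4x dil from 3 μM, n=3; 37° C/5% CO2; CTG 2.0 lumi; % DMSO ctrl; 4PL IC50.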

[3] = test system: RT112/84 cell line (FGFR3-fusion); experiment: as above; assay type: cell-based; conditions: Homo sapiens, RT112/84, RT112/84 cell line (FGFR3-fusion)
In short: as §1

[4] = test system: KG-1 cell line (FGFR 1-fusion); experiment: as above; assay type: cell-based; conditions: Homo sapiens, KG-1, KG-1 cell line (FGFR1-fusion)
In short: as §1

FGFR3 = biological target: T1, FGFR3 (Homo sapiens, UniProt P22607); experiment: Kinase binding assay (kinase-tagged T7 phage, affinity beads, qPCR), Kd; conditions: read-out: FGFR3 (Kd nM)
T1 construct: made in house; host or cells: E. coli (BL21-derived), T7 phage
In short: (§2)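 Competition binding; kinase-tagged T7 phage lysate vs immobilised biotinylated ligand on streptavidin beads, 0.9% DMSO final. 11-pt 3-fold dilutions, 3 DMSO controls. qPCR of eluted kinase; Kd by Hill fit, slope −1.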

FGFR2 = biological target: T2, FGFR2 (Homo sapiens, UniProt P21802); experiment: as above; conditions: read-out: FGFR2 (Kd nM)
T2 construct: made in house; host or cells: E. coli (BL21-derived), T7 phage
In short: as §2

FGFR1 = biological target: T3, FGFR1 (Homo sapiens, UniProt P11362); experiment: as above; conditions: read-out: FGFR1 (Kd nM)
T3 construct: made in house; host or cells: E. coli (BL21-derived), T7 phage
In short: as §2

FGFR4 = biological target: T4, FGFR4 (Homo sapiens, UniProt P22455); experiment: as above; conditions: read-out: FGFR4 (Kd nM)
T4 construct: made in house; host or cells: E. coli (BL21-derived), T7 phage
In short: as §2

FGFR3 (V555M) = biological target: T5, FGFR3 (V555M) (Homo sapiens, UniProt P22607, V555M); experiment: as above; conditions: V555M mutant; read-out: FGFR3 (V555M) (Kd nM)
T5 construct: made in house; host or cells: E. coli (BL21-derived), T7 phage
In short: as §2

T5 sequence (P22607 23-806 V555M): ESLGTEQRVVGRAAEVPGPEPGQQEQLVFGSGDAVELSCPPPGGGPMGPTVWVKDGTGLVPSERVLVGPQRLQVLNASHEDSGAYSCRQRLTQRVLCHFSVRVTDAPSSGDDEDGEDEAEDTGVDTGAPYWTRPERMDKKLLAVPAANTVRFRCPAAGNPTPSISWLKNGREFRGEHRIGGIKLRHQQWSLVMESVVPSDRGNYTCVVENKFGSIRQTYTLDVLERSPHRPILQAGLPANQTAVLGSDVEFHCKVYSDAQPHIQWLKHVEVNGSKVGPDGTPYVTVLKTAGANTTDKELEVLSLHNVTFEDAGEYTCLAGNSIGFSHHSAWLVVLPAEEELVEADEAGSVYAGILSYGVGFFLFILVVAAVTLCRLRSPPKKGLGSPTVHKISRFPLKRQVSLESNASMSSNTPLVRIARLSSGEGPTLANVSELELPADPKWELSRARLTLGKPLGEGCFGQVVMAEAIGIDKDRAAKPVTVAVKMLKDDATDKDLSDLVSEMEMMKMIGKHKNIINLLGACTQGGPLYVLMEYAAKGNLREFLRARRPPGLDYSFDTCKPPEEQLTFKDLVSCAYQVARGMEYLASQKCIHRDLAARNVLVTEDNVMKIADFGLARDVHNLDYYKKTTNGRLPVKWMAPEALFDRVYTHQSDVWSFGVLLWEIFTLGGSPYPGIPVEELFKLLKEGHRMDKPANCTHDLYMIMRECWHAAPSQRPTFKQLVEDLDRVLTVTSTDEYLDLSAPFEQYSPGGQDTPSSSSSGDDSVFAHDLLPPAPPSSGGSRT
T3 sequence (P11362 22-822): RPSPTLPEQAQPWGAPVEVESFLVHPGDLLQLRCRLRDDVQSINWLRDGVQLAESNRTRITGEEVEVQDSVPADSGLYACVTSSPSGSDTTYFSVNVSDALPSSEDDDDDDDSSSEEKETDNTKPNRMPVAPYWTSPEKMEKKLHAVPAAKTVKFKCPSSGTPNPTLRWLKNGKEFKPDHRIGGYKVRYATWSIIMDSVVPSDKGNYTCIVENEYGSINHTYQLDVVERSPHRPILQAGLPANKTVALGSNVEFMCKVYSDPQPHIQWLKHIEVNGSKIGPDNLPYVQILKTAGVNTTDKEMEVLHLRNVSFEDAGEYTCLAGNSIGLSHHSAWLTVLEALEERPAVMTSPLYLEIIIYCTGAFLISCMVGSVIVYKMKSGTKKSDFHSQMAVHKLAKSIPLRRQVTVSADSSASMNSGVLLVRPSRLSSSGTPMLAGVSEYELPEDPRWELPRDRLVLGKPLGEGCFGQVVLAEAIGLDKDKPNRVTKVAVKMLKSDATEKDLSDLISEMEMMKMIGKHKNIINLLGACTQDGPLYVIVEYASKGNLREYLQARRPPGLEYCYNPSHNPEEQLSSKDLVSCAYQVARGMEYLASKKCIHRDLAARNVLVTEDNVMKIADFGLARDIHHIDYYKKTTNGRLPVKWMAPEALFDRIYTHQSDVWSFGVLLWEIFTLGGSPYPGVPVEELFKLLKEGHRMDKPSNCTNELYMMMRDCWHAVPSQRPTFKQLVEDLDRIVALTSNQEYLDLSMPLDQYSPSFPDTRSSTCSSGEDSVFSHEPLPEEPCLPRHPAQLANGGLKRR
T4 sequence (P22455 22-802): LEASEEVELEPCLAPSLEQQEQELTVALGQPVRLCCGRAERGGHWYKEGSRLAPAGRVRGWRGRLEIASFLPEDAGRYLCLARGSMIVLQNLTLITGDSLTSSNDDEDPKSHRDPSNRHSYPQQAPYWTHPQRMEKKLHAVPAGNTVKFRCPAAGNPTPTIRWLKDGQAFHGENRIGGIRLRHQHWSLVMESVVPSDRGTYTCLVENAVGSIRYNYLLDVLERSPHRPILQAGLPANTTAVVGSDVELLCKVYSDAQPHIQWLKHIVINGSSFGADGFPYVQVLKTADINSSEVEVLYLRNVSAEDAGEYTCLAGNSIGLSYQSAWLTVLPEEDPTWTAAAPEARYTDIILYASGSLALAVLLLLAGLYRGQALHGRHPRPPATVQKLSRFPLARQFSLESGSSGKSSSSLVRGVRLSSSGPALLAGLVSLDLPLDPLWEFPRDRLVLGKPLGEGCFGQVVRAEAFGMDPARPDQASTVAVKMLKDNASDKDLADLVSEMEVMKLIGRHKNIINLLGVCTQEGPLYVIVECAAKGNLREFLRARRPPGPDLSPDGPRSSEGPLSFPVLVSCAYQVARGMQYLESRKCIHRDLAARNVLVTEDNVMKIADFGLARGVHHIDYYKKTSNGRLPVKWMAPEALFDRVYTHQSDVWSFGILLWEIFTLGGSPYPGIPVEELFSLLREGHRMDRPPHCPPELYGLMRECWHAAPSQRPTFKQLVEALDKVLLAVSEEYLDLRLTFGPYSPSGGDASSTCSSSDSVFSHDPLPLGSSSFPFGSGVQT
T2 sequence (P21802 22-821): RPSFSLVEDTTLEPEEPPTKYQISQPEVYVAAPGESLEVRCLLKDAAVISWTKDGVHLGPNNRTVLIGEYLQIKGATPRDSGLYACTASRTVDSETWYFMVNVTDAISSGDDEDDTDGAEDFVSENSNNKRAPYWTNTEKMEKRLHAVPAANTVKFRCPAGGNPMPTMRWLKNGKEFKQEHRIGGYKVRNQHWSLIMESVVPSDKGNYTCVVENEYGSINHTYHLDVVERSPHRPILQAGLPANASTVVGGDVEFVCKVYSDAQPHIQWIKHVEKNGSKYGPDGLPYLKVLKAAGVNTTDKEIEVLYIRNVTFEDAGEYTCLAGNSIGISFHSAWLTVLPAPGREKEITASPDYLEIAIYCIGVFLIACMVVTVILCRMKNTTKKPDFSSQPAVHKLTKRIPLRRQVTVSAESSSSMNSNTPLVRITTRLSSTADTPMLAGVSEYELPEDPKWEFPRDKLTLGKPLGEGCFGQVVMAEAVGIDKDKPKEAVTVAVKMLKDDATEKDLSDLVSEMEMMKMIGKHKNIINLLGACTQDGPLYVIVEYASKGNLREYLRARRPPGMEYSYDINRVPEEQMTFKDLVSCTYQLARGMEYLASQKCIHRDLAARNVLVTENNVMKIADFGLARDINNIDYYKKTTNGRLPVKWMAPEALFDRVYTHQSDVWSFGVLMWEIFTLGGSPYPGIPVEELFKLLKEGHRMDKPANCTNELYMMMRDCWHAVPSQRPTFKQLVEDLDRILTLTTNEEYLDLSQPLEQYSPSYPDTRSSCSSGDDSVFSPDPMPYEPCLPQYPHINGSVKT
T1 sequence (P22607 23-806): as the sequence (P22607 23-806 V555M) above, with M533V counted along it

C[C@@H](Oc1cc2c(-c3cnc(N4CC(C)(NCCO)C4)c(C#N)c3)n[nH]c2cc1F)c1c(Cl)cncc1Cl [Example 129, (R)-5-(5-(1-(3,5-dichloropyridin-4-yl)ethoxy)-6-fluoro-1H-indazol-3-yl)-2-(3-((2-hydroxyethyl)amino)-3-methylazetidin-1-yl)nicotinonitrile]
IC50 [1]: 50 to 200 nM | IC50 [2]: 200 to 1000 nM | IC50 [3]: 50 to 200 nM | IC50 [4]: 200 to 1000 nM

COc1cc2[nH]nc(-c3cnc(N4CC(CC#N)(NC(C)C)C4)c(C#N)c3)c2cc1O[C@H](C)c1c(Cl)cncc1Cl [Example 152, (R)-2-(3-(cyanomethyl)-3-(isopropylamino)azetidin-1-yl)-5-(5-(1-(3,5-dichloropyridin-4-yl)ethoxy)-6-methoxy-1H-indazol-3-yl)nicotinonitrile]
Kd (FGFR3): 1 to 50 nM | Kd (FGFR2): 1 to 50 nM | Kd (FGFR1): 1 to 50 nM | Kd (FGFR4): 1 to 50 nM | IC50 [1]: 0.1 to 50 nM | IC50 [2]: 50 to 200 nM | IC50 [3]: 0.1 to 50 nM | IC50 [4]: 200 to 1000 nM

CNC1(CC#N)CN(c2ncc(-c3n[nH]c4cc(OC)c(O[C@H](C)c5c(Cl)cncc5Cl)cc34)cc2C#N)C1 [Example 153, (R)-2-(3-(cyanomethyl)-3-(methylamino)azetidin-1-yl)-5-(5-(1-(3,5-dichloropyridin-4-yl)ethoxy)-6-methoxy-1H-indazol-3-yl)nicotinonitrile]
Kd (FGFR3): 1 to 50 nM | Kd (FGFR2): 1 to 50 nM | Kd (FGFR1): 1 to 50 nM | Kd (FGFR4): 1 to 50 nM | IC50 [1]: 0.1 to 50 nM | IC50 [2]: 0.1 to 50 nM | IC50 [3]: 0.1 to 50 nM | IC50 [4]: 50 to 200 nM

COc1cc2[nH]nc(-c3cnc(N4CC(C)(NCC(C)(C)O)C4)c(C#N)c3)c2cc1O[C@@H](C)c1c(Cl)cncc1Cl [Example 331, (S)-5-(5-(1-(3,5-dichloropyridin-4-yl)ethoxy)-6-methoxy-1H-indazol-3-yl)-2-(3-((2-hydroxy-2-methylpro-pyl)amino)-3-methylazetidin-1-yl)nicotinonitrile]
Kd (FGFR3 (V555M)): 50 to 300 nM | Kd (FGFR3): 50 to 300 nM | Kd (FGFR2): 300 to 1000 nM | Kd (FGFR1): 300 to 1000 nM | Kd (FGFR4): 1 to 50 nM | IC50 [1]: 200 to 1000 nM

COc1cc2[nH]nc(-c3cnc(N4CC(C)(CS(C)(=O)=O)C4)c(C#N)c3)c2cc1O[C@@H](C)c1c(Cl)cncc1Cl [Example 332, (S)-5-(5-(1-(3,5-dichloropyridin-4-yl)ethoxy)-6-methoxy-1H-indazol-3-yl)-2-(3-methyl-3-((methyl-sulfonyl)meth-yl)azetidin-1-yl)nicotinonitrile]
Kd (FGFR3 (V555M)): 300 to 1000 nM | Kd (FGFR3): 300 to 1000 nM | Kd (FGFR2): > 1000 nM | Kd (FGFR1): > 1000 nM | Kd (FGFR4): 1 to 50 nM | IC50 [1]: 200 to 1000 nM

COc1cc2[nH]nc(-c3cnc(N4CC(C)(NCC5CC5)C4)c(C#N)c3)c2cc1O[C@@H](C)c1c(Cl)cncc1Cl [Example 333, (S)-2-(3-((cyclopropyl-methyl)amino)-3-methylazetidin-1-yl)-5-(5-(1-(3,5-dichloropyridin-4-yl)ethoxy)-6-methoxy-1H-indazol-3-yl)nicotinonitrile]
Kd (FGFR3 (V555M)): 50 to 300 nM | Kd (FGFR3): 50 to 300 nM | Kd (FGFR2): > 1000 nM | Kd (FGFR1): 300 to 1000 nM | Kd (FGFR4): 1 to 50 nM | IC50 [1]: 200 to 1000 nM

COc1cc2[nH]nc(-c3cnc(N4C[C@H](CS(C)(=O)=O)[C@H]4C)c(C#N)c3)c2cc1O[C@@H](C)c1c(Cl)cncc1Cl [Example 335, 5-(5-((S)-1-(3,5-dichloropyridin-4-yl)ethoxy)-6-methoxy-1H-indazol-3-yl)-2-((2R,3S)-2-methyl-3-((meth-ylsulfonyl)meth-yl)azetidin-1-yl)nicotinonitrile]
Kd (FGFR3 (V555M)): 300 to 1000 nM | Kd (FGFR3): 300 to 1000 nM | Kd (FGFR2): > 1000 nM | Kd (FGFR1): > 1000 nM | Kd (FGFR4): 1 to 50 nM | IC50 [1]: 200 to 1000 nM

COc1cc2[nH]nc(-c3cnc(N4CC(C)(N5C[C@@H]6C[C@H]5CO6)C4)c(C#N)c3)c2cc1O[C@H](C)c1c(Cl)cncc1Cl [Example 336, -(3-((1S,4S)-2-oxa-5-aza-bicyclo[2.2.1]hep-tan-5-y1)-3-methylazetidin-1-yl)-5-(5-((R)-1-(3,5-dichloropyridin-4-yl)ethoxy)-6-methoxy-1H-indazol-3-yl)nicotinonitrile]
Kd (FGFR3 (V555M)): 1 to 50 nM | Kd (FGFR3): 1 to 50 nM | Kd (FGFR2): 1 to 50 nM | Kd (FGFR1): 1 to 50 nM | Kd (FGFR4): 1 to 50 nM | IC50 [1]: 0.1 to 50 nM

COc1cc2[nH]nc(-c3cnc(N4CC(C)(NC(=O)CN(C)C)C4)c(C#N)c3)c2cc1O[C@H](C)c1c(Cl)cncc1Cl [Example 340, (R)-N-(1-(3-cyano-5-(5-(1-(3,5-dichloropyridin-4-yl)ethoxy)-6-methoxy-1H-indazol-3-yl)pyridin-2-yl)-3-methylazetidin-3-yl)-2-(dimethylamino)-acetamide]
Kd (FGFR2): 1 to 50 nM | Kd (FGFR1): 1 to 50 nM | Kd (FGFR4): 1 to 50 nM | IC50 [1]: 0.1 to 50 nM | IC50 [2]: 50 to 200 nM | IC50 [3]: 0.1 to 50 nM | IC50 [4]: 50 to 200 nM

COc1cc2[nH]nc(-c3cnc(N4CC(C)(N(C)CC(C)C)C4)c(C#N)c3)c2cc1O[C@H](C)c1c(Cl)cncc1Cl [Example 343, (R)-5-(5-(1-(3,5-dichloropyridin-4-yl)ethoxy)-6-methoxy-1H-indazol-3-yl)-2-(3-(isobutyl(meth-yl)amino)-3-methylazetidin-1-yl)nicotinonitrile]
Kd (FGFR3): 1 to 50 nM | Kd (FGFR2): 50 to 300 nM | Kd (FGFR1): 50 to 300 nM | Kd (FGFR4): 1 to 50 nM | IC50 [1]: 200 to 1000 nM | IC50 [2]: 200 to 1000 nM | IC50 [3]: 50 to 200 nM | IC50 [4]: > 1000 nM

COc1cc2[nH]nc(-c3cnc(N4CC(C)(N(C)CC5CC5)C4)c(C#N)c3)c2cc1O[C@H](C)c1c(Cl)cncc1Cl [Example 344, (R)-2-(3-((cyclopropyl-methyl) (methyl)amino)-3-methylazetidin-1-yl)-5-(5-(1-(3,5-dichloropyridin-4-yl)ethoxy)-6-methoxy-1H-indazol-3-yl)nicotinonitrile]
Kd (FGFR3): 1 to 50 nM | Kd (FGFR2): 1 to 50 nM | Kd (FGFR1): 1 to 50 nM | Kd (FGFR4): 1 to 50 nM | IC50 [1]: 0.1 to 50 nM | IC50 [2]: 50 to 200 nM | IC50 [3]: 0.1 to 50 nM | IC50 [4]: 200 to 1000 nM

COc1cc2[nH]nc(-c3cnc(N4CC(N)(CC#N)C4)c(C#N)c3)c2cc1O[C@H](C)c1c(Cl)cncc1Cl [Example 345, 2-[3-amino-3-(cyanomethyl)azeti-din-1-yl]-5-[5-[(1R)-1-(3,5-dichloro-4-pyridyl)ethoxy]-6-methoxy-1H-indazol-3-yl]pyridine-3-carbonitrile]
Kd (FGFR3): 1 to 50 nM | Kd (FGFR2): 1 to 50 nM | Kd (FGFR1): 1 to 50 nM | Kd (FGFR4): 1 to 50 nM | IC50 [1]: 0.1 to 50 nM | IC50 [2]: 0.1 to 50 nM | IC50 [3]: 0.1 to 50 nM | IC50 [4]: 50 to 200 nM

COc1cc2[nH]nc(-c3cnc(N4CC(CC#N)(NCC5CC5)C4)c(C#N)c3)c2cc1O[C@H](C)c1c(Cl)cncc1Cl [Example 346, (R)-2-(3-(cyanomethyl)-3-((cyclo-propylmethyl)-amino)azetidin-1-yl)-5-(5-(1-(3,5-dichloropyridin-4-yl)ethoxy)-6-methoxy-1H-indazol-3-yl)nicotinonitrile]
Kd (FGFR3): 1 to 50 nM | Kd (FGFR2): 1 to 50 nM | Kd (FGFR1): 1 to 50 nM | Kd (FGFR4): 1 to 50 nM | IC50 [1]: 0.1 to 50 nM | IC50 [2]: 0.1 to 50 nM | IC50 [3]: 0.1 to 50 nM | IC50 [4]: 50 to 200 nM

CCC1(NC)CN(c2ncc(-c3n[nH]c4cc(OC)c(O[C@H](C)c5c(Cl)cncc5Cl)cc34)cc2C#N)C1 [Example 351, (R)-5-(5-(1-(3,5-Dichloropyridin-4-yl)ethoxy)-6-methoxy-1H-indazol-3-yl)-2-(3-ethyl-3-(methyl-amino)azeti-din-1-yl)nicotinonitrile diHCl]
Kd (FGFR3): 1 to 50 nM | Kd (FGFR2): 1 to 50 nM | Kd (FGFR1): 1 to 50 nM | Kd (FGFR4): 1 to 50 nM | IC50 [1]: 0.1 to 50 nM | IC50 [2]: 0.1 to 50 nM | IC50 [3]: 0.1 to 50 nM | IC50 [4]: 0.1 to 50 nM

COc1cc2[nH]nc(-c3cnc(N4CC(CC#N)(N(C)C)C4)c(C#N)c3)c2cc1O[C@H](C)c1c(Cl)cncc1Cl [Example 352, (R)-2-(3-(cyanomethyl)-3-(dimethylamino)-azetidin-1-yl)-5-(5-(1-(3,5-dichloropyridin-4-yl)ethoxy)-6-methoxy-1H-indazol-3-yl)nicotinonitrile]
Kd (FGFR3): 1 to 50 nM | Kd (FGFR2): 1 to 50 nM | Kd (FGFR1): 1 to 50 nM | Kd (FGFR4): 1 to 50 nM | IC50 [1]: 0.1 to 50 nM | IC50 [2]: 0.1 to 50 nM | IC50 [3]: 0.1 to 50 nM | IC50 [4]: 0.1 to 50 nM

COc1cc2[nH]nc(-c3cnc(N4CC(N)(C(C)C)C4)c(C#N)c3)c2cc1O[C@H](C)c1c(Cl)cncc1Cl [Example 353, (R)-2-(3-amino-3-isopropylazetidin-1-yl)-5-(5-(1-(3,5-dichloropyridin-4-yl)ethoxy)-6-methoxy-1H-indazol-3-yl)nicotinonitrile]
Kd (FGFR3): 1 to 50 nM | Kd (FGFR2): 1 to 50 nM | Kd (FGFR1): 1 to 50 nM | Kd (FGFR4): 1 to 50 nM | IC50 [1]: 0.1 to 50 nM | IC50 [2]: 50 to 200 nM | IC50 [3]: 0.1 to 50 nM | IC50 [4]: 50 to 200 nM
